The values below come from ChEMBL document CHEMBL1133537, “Chiral derivatives of 2-cyclohexylideneperhydro-4,7-methanoindenes, a novel class of nonsteroidal androgen receptor ligand: synthesis, X-ray analysis, and biological activity” (J Med Chem, 2000).

Test [1] addresses T1, Androgen receptor (Rattus norvegicus, UniProt P15207).
T1 sequence (P15207 whole entry): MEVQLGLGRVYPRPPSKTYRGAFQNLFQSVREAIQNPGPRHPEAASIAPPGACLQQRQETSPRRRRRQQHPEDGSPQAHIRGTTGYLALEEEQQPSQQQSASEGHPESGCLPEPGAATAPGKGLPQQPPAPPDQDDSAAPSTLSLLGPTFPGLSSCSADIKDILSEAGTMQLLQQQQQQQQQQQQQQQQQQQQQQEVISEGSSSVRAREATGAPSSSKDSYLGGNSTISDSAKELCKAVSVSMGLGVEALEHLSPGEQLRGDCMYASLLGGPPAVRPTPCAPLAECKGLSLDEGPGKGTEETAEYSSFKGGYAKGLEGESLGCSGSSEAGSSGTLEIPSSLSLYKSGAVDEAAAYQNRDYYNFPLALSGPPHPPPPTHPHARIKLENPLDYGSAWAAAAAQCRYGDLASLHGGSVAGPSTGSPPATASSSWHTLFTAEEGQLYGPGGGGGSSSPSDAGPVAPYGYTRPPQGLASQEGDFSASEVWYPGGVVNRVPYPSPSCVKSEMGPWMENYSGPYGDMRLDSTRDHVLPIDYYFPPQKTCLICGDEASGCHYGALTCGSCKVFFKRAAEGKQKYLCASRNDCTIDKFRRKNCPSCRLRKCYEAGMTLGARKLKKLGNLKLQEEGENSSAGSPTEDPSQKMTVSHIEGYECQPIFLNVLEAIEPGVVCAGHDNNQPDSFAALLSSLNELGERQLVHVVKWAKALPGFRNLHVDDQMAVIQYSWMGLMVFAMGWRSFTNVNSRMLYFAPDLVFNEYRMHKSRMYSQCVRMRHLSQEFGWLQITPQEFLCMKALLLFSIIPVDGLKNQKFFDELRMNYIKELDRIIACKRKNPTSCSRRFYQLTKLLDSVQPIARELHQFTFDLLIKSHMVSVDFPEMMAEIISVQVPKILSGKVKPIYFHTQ
Description: Ability to inhibit binding of [3H]R-1881 to rat ventral prostate cytosolic androgen receptor was measured in a radioligand binding assay.

Test [2] can be described thus: Eudismic ratio which is the ratio of potency of eutomer and distomer.
Test [3] concerns the target T1, Androgen receptor. Put plainly: […] binding affinity fot cytosolic androgen receptor.

SMILES strings stand for the structures.

At Androgen receptor [1], `C#C[C@@]1(O)C[C@H]2C[C@@H]1[C@@H]1CC(=C3CCC(=O)CC3)C[C@H]21` displayed an IC50 of 57 µM. Also, the Ratio in test [2] stood at 4.2.
As to `C#C[C@]1(O)CC[C@H]2[C@@H]3CCC4Cc5nn(S(C)(=O)=O)cc5C[C@]4(C)[C@H]3CC[C@@]21C` (stereo partly drawn), on Androgen receptor [3], affinity was put at a Ki of 2.2 µM.
In turn, `C[C@@]1(O)C[C@H]2C[C@@H]1[C@@H]1CC(=C3CCC(=O)CC3)C[C@H]21` returned an IC50 on Androgen receptor [1] of 27.4 µM.
In the case of `O=C1CCC(=C2C[C@@H]3[C@H](C2)[C@@H]2C[C@H]3[C@@H](O)C2)CC1`, it took 3.9 µM to reach half-maximal inhibition on Androgen receptor [1] (IC50). For the same molecule, the Ratio in test [2] is 2.7.
Turning to `C=C[C@@]1(O)C[C@H]2C[C@@H]1[C@@H]1CC(=C3CCC(=O)CC3)C[C@H]21`, on Androgen receptor [1], the IC50 stood at 62.5 µM.
Regarding `C#C[C@]1(O)C[C@@H]2C[C@H]1[C@H]1CC(=C3CCC(=O)CC3)C[C@@H]21`, the IC50 against Androgen receptor [1] is 13.5 µM.
The molecule `O=C1CCC(=C2C[C@H]3[C@H]4C[C@@H]([C@H]3C2)[C@](O)(C(F)(F)F)C4)CC1` came in with an IC50 on Androgen receptor [1] of 15.6 µM.
`O=C1CCC(=C2C[C@H]3[C@@H]4CC(=O)[C@@H](C4)[C@H]3C2)CC1` came in with an IC50 on Androgen receptor [1] of 14.2 µM.
As for `O=C1CCC(=C2C[C@H]3[C@@H](C2)[C@H]2C[C@@H]3[C@H](O)C2)CC1`, the IC50 at Androgen receptor [1] turned out to be 10.4 µM.
At Androgen receptor [1], `O=C1CCC(=C2C[C@@H]3[C@@H]4C[C@H]([C@@H]3C2)[C@@](O)(C(F)(F)F)C4)CC1` had an IC50 of 41.2 µM. In test [2], the Ratio came out at 2.6.
On to `O=C1CCC(=C2C[C@@H]3[C@H]4CC(=O)[C@H](C4)[C@@H]3C2)CC1`, for which the IC50 on Androgen receptor [1] amounted to 33 µM. Besides, the Ratio in test [2] turned out to be 2.3.
Consider `O=C1CCC(=C2C[C@@H]3[C@H](C2)[C@@H]2C[C@H]3[C@H](O)C2)CC1`, for which the IC50 on Androgen receptor [1] was 35.9 µM. In test [2], the Ratio is 15.5. In addition, the affinity at Androgen receptor [3] corresponds to a Ki of 0.45 µM.
